From patent US6472348B1, “Pyridone derivatives and herbicides” (Kumiai Chemical Industry Co., Ltd., priority 1996, dated 2002)

Key:
barnyardgrass (Ec) [1] = assay: Test Example 1: herbicidal effects by paddy field soil treatment; type: in vivo; conditions: 100 g of the active ingredient per 10 ares, 21st day after the application, index 0-5 of Table 47;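 also: grade of growth control; 5 = at least 90%; 4 = 70 to 90%; 3 = 50 to 70%; 2 = 30 to 50%; 1 = 10 to 30%; 0 = under 10%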
How it was run: (§1)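 Flooded paddy-soil pots (3 cm water) sown after puddling/leveling; treatment 100 g a.i./10 ares; greenhouse culture; herbicidal effect rated visually on a scoring scale at 21 d post-application.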

bulrush (Sc) = assay: as above; type: in vivo; conditions: 100 g of the active ingredient per 10 ares, 21st day after the application, index 0-5 of Table 47;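 also: grade of growth control; 5 = at least 90%; 4 = 70 to 90%; 3 = 50 to 70%; 2 = 30 to 50%; 1 = 10 to 30%; 0 = under 10%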
How it was run: as §1

monochoria (Mo) = assay: as above; type: in vivo; conditions: 100 g of the active ingredient per 10 ares, 21st day after the application, index 0-5 of Table 47;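 also: grade of growth control; 5 = at least 90%; 4 = 70 to 90%; 3 = 50 to 70%; 2 = 30 to 50%; 1 = 10 to 30%; 0 = under 10%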
How it was run: as §1

Digitaria ciliaris (Di) = assay: Test Example 2: herbicidal effects by upland field soil treatment; type: in vivo; conditions: 100 g of the active ingredient per 10 ares, 21st day after the application, index 0-5 of Table 47;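 also: grade of growth control; 5 = at least 90%; 4 = 70 to 90%; 3 = 50 to 70%; 2 = 30 to 50%; 1 = 10 to 30%; 0 = under 10%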
Text: (§2) (Test on Herbicidal Effects by Upland Field Soil Treatment)

barnyardgrass (Ec) [2] = assay: as above; type: in vivo; conditions: 100 g of the active ingredient per 10 ares, 21st day after the application, index 0-5 of Table 47
Text: as §2

[3] = test system: common lambsquarters (Ch); assay: as above; type: in vivo; conditions: 100 g of the active ingredient per 10 ares, 21st day after the application, index 0-5 of Table 47
Text: as §2

pale smartweed (Po) [4] = assay: as above; type: in vivo; conditions: 100 g of the active ingredient per 10 ares, 21st day after the application, index 0-5 of Table 47
Text: as §2

rice flatsedge (Ci) [5] = assay: as above; type: in vivo; conditions: 100 g of the active ingredient per 10 ares, 21st day after the application, index 0-5 of Table 47
Text: as §2

slender amaranth (Am) [6] = assay: as above; type: in vivo; conditions: 100 g of the active ingredient per 10 ares, 21st day after the application, index 0-5 of Table 47
Text: as §2

Diaitaria ciliaris (Di) = assay: Test Example 3: herbicidal effects by upland field foliage treatment; type: in vivo; design: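 grade of growth control; 5 = at least 90%; 4 = 70 to 90%; 3 = 50 to 70%; 2 = 30 to 50%; 1 = 10 to 30%; 0 = under 10%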; conditions: 100 g of the active ingredient per 10 ares, evaluated on the 14th day after treatment
How it was run: (§3)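 Two-week-old greenhouse seedlings, raised in sand-filled pots (120 cm^2) with seed covered by soil, receive a foliar application. Effects are then evaluated by standard grades 14 days later, plants remaining in the greenhouse meanwhile.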

barnyardgrass (Ec) [7] = assay: as above; type: in vivo; design: scale not given here; conditions: 100 g of the active ingredient per 10 ares, evaluated on the 14th day after treatment
How it was run: as §3

[8] = test system: common lambsquarters (Ch); assay: as above; type: in vivo; design: scale not given here; conditions: 100 g of the active ingredient per 10 ares, evaluated on the 14th day after treatment
How it was run: as §3

pale smartweed (Po) [9] = assay: as above; type: in vivo; design: scale not given here; conditions: 100 g of the active ingredient per 10 ares, evaluated on the 14th day after treatment
How it was run: as §3

rice flatsedge (Ci) [10] = assay: as above; type: in vivo; design: scale not given here; conditions: 100 g of the active ingredient per 10 ares, evaluated on the 14th day after treatment
How it was run: as §3

slender amaranth (Am) [11] = assay: as above; type: in vivo; design: scale not given here; conditions: 100 g of the active ingredient per 10 ares, evaluated on the 14th day after treatment
How it was run: as §3

wheat (Tr) = assay: Test Example 9: crop plant selectivity by upland field foliage treatment (wheat), phytotoxicity; conditions: dose 1.6 g ai/10a, 14th day after treatment
How it was run: (§4)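 Sand-filled pot, wheat + weeds co-sown; greenhouse 2 wk, then foliage treatment; greenhouse culture continued; visual scoring of weed control and crop injury at 14 d post-treatment per grading scale.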

China jute (Ab) [12] = assay: Test Example 9: crop plant selectivity by upland field foliage treatment (wheat), herbicidal effects; type: in vivo; design: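 grade of growth control; 5 = at least 90%; 4 = 70 to 90%; 3 = 50 to 70%; 2 = 30 to 50%; 1 = 10 to 30%; 0 = under 10%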; conditions: dose 1.6 g ai/10a, 14th day after treatment
How it was run: as §4

[13] = test system: common lambsquarters (Ch); assay: as above; type: in vivo; design: scale not given here; conditions: dose 1.6 g ai/10a, 14th day after treatment
How it was run: as §4

pale smartweed (Po) [14] = assay: as above; type: in vivo; design: scale not given here; conditions: dose 1.6 g ai/10a, 14th day after treatment
How it was run: as §4

slender amaranth (Am) [15] = assay: as above; type: in vivo; design: scale not given here; conditions: dose 1.6 g ai/10a, 14th day after treatment
How it was run: as §4

soybean (Gl) = assay: Test Example 10: crop plant selectivity by upland field foliage treatment (soybean), phytotoxicity; conditions: dose 1.6 g ai/10a, 14th day after treatment
Procedure: (§5) (Test on Crop Plant Selectivity by Upland Field Foliage Treatment)
(§6) In a plastic pot (surface area: 600 cm^2) filled with sand, soybean (Gl), pale smartweed (Po), slender amaranth (Am), common lambsquarters (Ch) and China jute (Ab) were sown and cultured in a green house for 2 weeks. […] The plants were then cultured in a green house, and the evaluation of the herbicidal effects and phytotoxicity was conducted on the 14th day after the treatment in accordance with the standards as identified in Table 47.

China jute (Ab) [16] = assay: Test Example 10: crop plant selectivity by upland field foliage treatment (soybean), herbicidal effects; type: in vivo; conditions: dose 1.6 g ai/10a, 14th day after treatment
Procedure: as §5, §6

[17] = test system: common lambsquarters (Ch); assay: as above; type: in vivo; conditions: dose 1.6 g ai/10a, 14th day after treatment
Procedure: as §5, §6

pale smartweed (Po) [18] = assay: as above; type: in vivo; conditions: dose 1.6 g ai/10a, 14th day after treatment
Procedure: as §5, §6

slender amaranth (Am) [19] = assay: as above; type: in vivo; conditions: dose 1.6 g ai/10a, 14th day after treatment
Procedure: as §5, §6

corn (Ze) = assay: Test Example 11: crop plant selectivity by upland field foliage treatment (corn), phytotoxicity; conditions: upland field foliage treatment, dose 1.6 g ai/10a, 14th day after treatment
How it was run: (§7)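 Corn and the weed species were sown together in sand-filled pots and grown in a greenhouse for 2 weeks before foliar treatment. Herbicidal effect was scored on day 14 after treatment against a graded standard scale, with corn phytotoxicity scored alongside.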

China jute (Ab) [20] = assay: Test Example 11: crop plant selectivity by upland field foliage treatment (corn), herbicidal effects; type: in vivo; design: scale not given here; conditions: upland field foliage treatment (corn test), dose 1.6 g ai/10a, 14th day after treatment
How it was run: as §7

[21] = test system: common lambsquarters (Ch); assay: as above; type: in vivo; design: scale not given here; conditions: upland field foliage treatment (corn test), dose 1.6 g ai/10a, 14th day after treatment
How it was run: as §7

pale smartweed (Po) [22] = assay: as above; type: in vivo; design: scale not given here; conditions: upland field foliage treatment (corn test), dose 1.6 g ai/10a, 14th day after treatment
How it was run: as §7

slender amaranth (Am) [23] = assay: as above; type: in vivo; design: scale not given here; conditions: upland field foliage treatment (corn test), dose 1.6 g ai/10a, 14th day after treatment
How it was run: as §7

Compound	Herbicidal effects Ec (barnyardgrass (Ec) [1])	Herbicidal effects Sc (bulrush (Sc))	Herbicidal effects Mo (monochoria (Mo))	Herbicidal effects Di (Digitaria ciliaris (Di))	Herbicidal effects Ec (barnyardgrass (Ec) [2])	Herbicidal effects Ch [3]	Herbicidal effects Po (pale smartweed (Po) [4])	Herbicidal effects Ci (rice flatsedge (Ci) [5])	Herbicidal effects Am (slender amaranth (Am) [6])	Herbicidal effects Di (Diaitaria ciliaris (Di))	Herbicidal effects Ec (barnyardgrass (Ec) [7])	Herbicidal effects Ch [8]	Herbicidal effects Po (pale smartweed (Po) [9])	Herbicidal effects Ci (rice flatsedge (Ci) [10])	Herbicidal effects Am (slender amaranth (Am) [11])	Phytotoxicity Tr (wheat (Tr))	Herbicidal effects Ab (China jute (Ab) [12])	Herbicidal effects Ch [13]	Herbicidal effects Po (pale smartweed (Po) [14])	Herbicidal effects Am (slender amaranth (Am) [15])	further results
CCC(=O)c1cc(-c2ccc(C(F)(F)F)n(C)c2=O)c(F)cc1Cl [1-69]	5	5	5	5	5	5	5	5	5	5	5	5	5	5	5	1	5	5	5	5	Phytotoxicity Gl (soybean (Gl)): 2; Herbicidal effects Ab (China jute (Ab) [16]): 5; Herbicidal effects Ch [17]: 5; Herbicidal effects Po (pale smartweed (Po) [18]): 5; Herbicidal effects Am (slender amaranth (Am) [19]): 5; Phytotoxicity Ze (corn (Ze)): 2; Herbicidal effects Ab (China jute (Ab) [20]): 5; Herbicidal effects Ch [21]: 5; Herbicidal effects Po (pale smartweed (Po) [22]): 5; Herbicidal effects Am (slender amaranth (Am) [23]): 5
COCSc1cc(-c2ccc(C(F)(F)F)n(C)c2=O)c(Cl)cc1Cl [1-126]	5	5	5	5	5	5	5	5	5	5	5	5	5	5	5	2	5	5	5	5	Phytotoxicity Gl (soybean (Gl)): 2; Herbicidal effects Ab (China jute (Ab) [16]): 5; Herbicidal effects Ch [17]: 5; Herbicidal effects Po (pale smartweed (Po) [18]): 5; Herbicidal effects Am (slender amaranth (Am) [19]): 5; Phytotoxicity Ze (corn (Ze)): 2; Herbicidal effects Ab (China jute (Ab) [20]): 5; Herbicidal effects Ch [21]: 5; Herbicidal effects Po (pale smartweed (Po) [22]): 5; Herbicidal effects Am (slender amaranth (Am) [23]): 5
